Source: patent US20240067651A1 (Biohaven Therapeutics Ltd., priority 2019, published 2024)

What was measured:
Plasma Stability = format: in vitro ADME, human
Method in brief: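 Compounds incubated at 1 μM in fresh human plasma for 1 hour at 37° C, then protein-precipitated with acetonitrile/formic acid containing internal standard. Remaining parent measured by LC-MS/MS in triplicate, expressed as percent of control remaining.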

[1] = Stability in Simulated Intestinal Fluid (SIF); format: in vitro ADME; design: key: % parent compound remaining relative to 0-minute sample
Method in brief: (§1)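 Percent parent compound remaining, by LC-MS/MS against the 0-minute sample, is reported after incubation at 2 μg/mL (final) in pepsin-containing SGF at pH 1.2 or pancreatin-containing SIF at pH 6.8. Incubations run at 37° C for up to 60 minutes.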

[2] = Caco-2 Permeability Assay; format: in vitro ADME, human; settings: human
Method in brief: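 Caco-2 monolayers cultured 21 days (TEER >600 […]); test article at 10 μM in HBSS/HEPES pH 7.4 transport medium, dosed apical or basolateral, ±Pgp inhibitor. Incubated 90 min at 37 °C; both compartments quantified by LC-MS/MS. Papp (A→B, B→A), efflux ratio and % recovery calculated.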

[3] = Stability in Simulated Gastric Fluid (SGF); format: in vitro ADME; design: key: % parent compound remaining relative to 0-minute sample
Method in brief: as §1

[4] = % @ 1 h (remaining) in human plasma
[5] = % @ 1 h (remaining) in simulated intestinal fluid
[6] = Caco-2, pH 7.4, Caco-2 monolayer
[7] = % @ 1 h (remaining) in simulated gastric fluid
[8] = % remaining at 1 h, human plasma, 1 μM, 37° C.
[9] = % remaining at 1 h, SIF with pancreatin pH 6.8, 2 μg/mL, 37° C.
[10] = Caco-2, pH 7.4, donor 10 μM, 90 minutes, 37° C., direction not given
[11] = % remaining at 1 h, SGF with pepsin pH 1.2, 2 μg/mL, 37° C.
[12] = % remaining at 1 h in human plasma, the 15th table
[13] = % remaining at 1 h in simulated intestinal fluid, the 15th table
[14] = Caco-2, pH 7.4, Caco-2 monolayer, the 15th table
[15] = % remaining at 1 h in simulated gastric fluid, the 15th table
[16] = bare number, unit or time not given, the 15th table Examples 204-207

SMILES	human Plasma stability (Plasma Stability; [12])	SIF [1, 13]	Papp at 90 min, 10 µM [2, 14]	SGF [3, 15]	further results
C=CCN(C)C(=O)OCSc1nc(=O)c2c(ccn2COC(=O)N(C)CC=C)n1CCOC(C)C.O=C(O)C(F)(F)F [Example 178]	–	–	–	–	human Plasma stability (Plasma Stability; [4]): 86% @ 1 h; SIF [1, 5]: 75% @ 1 h; Papp at 90 min, 10 µM [2, 6]: 19.4 ×10⁻⁶ cm/s; SGF [3, 7]: 99% @ 1 h
C=CCCN(C)C(=O)OCSc1nc(=O)c2[nH]ccc2n1CCOC(C)C.O=C(O)C(F)(F)F [Example 179]	–	–	–	–	human Plasma stability (Plasma Stability; [4]): 99% @ 1 h; SIF [1, 5]: 91% @ 1 h; Papp at 90 min, 10 µM [2, 6]: 14.5 ×10⁻⁶ cm/s; SGF [3, 7]: 95% @ 1 h
C=CCCN(C)C(=O)OCSc1nc(=O)c2c(ccn2COC(=O)N(C)CCC=C)n1CCOC(C)C.O=C(O)C(F)(F)F [Example 180]	–	–	–	–	human Plasma stability (Plasma Stability; [4]): 99% @ 1 h; SIF [1, 5]: 82% @ 1 h; Papp at 90 min, 10 µM [2, 6]: 25.9 ×10⁻⁶ cm/s; SGF [3, 7]: 99% @ 1 h
CC(C)OCCn1c(=S)[nH]c(=O)c2c1ccn2COC(N)=O [Example 181, Carbamic acid 1-(2-isopropoxy-ethyl)-4-oxo-2-thioxo-1,2,3,4-tetrahydro-pyrrolo[3,2-d]pyrimidin-5-ylmethyl ester]	–	–	–	–	human Plasma stability (Plasma Stability; [8]): 99%; SIF [1, 9]: 97%; Papp at 90 min, 10 µM [2, 10]: 21.8 ×10⁻⁶ cm/s; SGF [3, 11]: 82%
CCCNC(=O)OCSc1nc(=O)c2c(ccn2COC(=O)NCCC)n1CCOC(C)C [Example 183]	92% @ 1 h	99% @ 1 h	4.59 ×10⁻⁶ cm/s	94% @ 1 h	–
CC(C)CNC(=O)OCSc1nc(=O)c2c(ccn2C(=O)NCC(C)C)n1CCOC(C)C [Example 187]	96% @ 1 h	97% @ 1 h	33.1 ×10⁻⁶ cm/s	97% @ 1 h	–
CC(C)CNC(=O)OCSc1nc(=O)c2c(ccn2COC(=O)NCC(C)C)n1CCOC(C)C [Example 188]	99% @ 1 h	97% @ 1 h	11.7 ×10⁻⁶ cm/s	98% @ 1 h	–
CCN(C(=O)OCSc1nc(=O)c2c(ccn2COC(=O)N(CC)C(C)C)n1CCOC(C)C)C(C)C [Example 189]	98% @ 1 h	97% @ 1 h	30.6 ×10⁻⁶ cm/s	99% @ 1 h	–
CC(C)OCCn1c(=S)[nH]c(=O)c2c1ccn2C(=O)OC(C)(C)C [Example 191]	16% @ 1 h	82% @ 1 h	1.08 ×10⁻⁶ cm/s	15% @ 1 h	–
CCCCNC(=O)OCSc1nc(=O)c2c(ccn2C(=O)NCCCC)n1CCOC(C)C [Example 194]	97% remaining	59% remaining	42.9 ×10⁻⁶ cm/s	99% remaining	–
CC(C)NC(=O)OCSc1nc(=O)c2c(ccn2C(=O)NC(C)C)n1CCOC(C)C [Example 195]	97% remaining	99% remaining	30 ×10⁻⁶ cm/s	100% remaining	–
COC(=O)OCSc1nc(=O)c2c(ccn2COC(=O)OC)n1CCOC(C)C [Example 198]	0% remaining	74% remaining	11.4 ×10⁻⁶ cm/s	79% remaining	–
COC(=O)OCSc1nc(=O)c2c(ccn2CSc2nc(=O)c3[nH]ccc3n2CCOC(C)C)n1CCOC(C)C [Example 199]	46% remaining	79% remaining	5.54 ×10⁻⁶ cm/s	47% remaining	–
CC(C)OCCn1c(SC(C)OC(=O)N(C(C)C)C(C)C)nc(=O)c2[nH]ccc21 (centres unmarked) [Example 208, 1-({4-Oxo-1-[2-(propan-2-yloxy)ethyl]-1H,4H,5H-pyrrolo[3,2-d]pyrimidin-2-yl}sulfanyl)ethyl N,N-bis(propan-2-yl)carbamate]	–	–	–	–	human Plasma stability (Plasma Stability; [8]): 98%; SIF [1, 9]: 93%; Papp at 90 min, 10 µM [2, 10]: 18.3 ×10⁻⁶ cm/s; SGF [3, 11]: 1%
CC(C)OCCn1c(SCOC(=O)N(C)c2ccccc2)nc(=O)c2[nH]ccc21 [Example 209, ({4-oxo-1-[2-(propan-2-yloxy)ethyl]-1H,4H,5H-pyrrolo[3,2-d]pyrimidin-2-yl}sulfanyl)methyl N-methyl-N-phenylcarbamate]	–	–	–	–	human Plasma stability (Plasma Stability; [8]): 97% remaining; SIF [1, 9]: 99% remaining; Papp at 90 min, 10 µM [2, 10]: 16.1 ×10⁻⁶ cm/s; SGF [3, 11]: 99% remaining
CC(C)OCCn1c(SCOC(=O)N(C)c2cccc(F)c2)nc(=O)c2[nH]ccc21 [Example 210, ({4-oxo-1-[2-(propan-2-yloxy)ethyl]-1H,4H,5H-pyrrolo[3,2-d]pyrimidin-2-yl}sulfanyl)methyl N-(3-fluorophenyl)-N-methylcarbamate]	–	–	–	–	human Plasma stability (Plasma Stability; [8]): 97% remaining; SIF [1, 9]: 97% remaining; Papp at 90 min, 10 µM [2, 10]: 18.3 ×10⁻⁶ cm/s; SGF [3, 11]: 100% remaining
CC(C)OCCn1c(SCOC(=O)N(C)c2ccc(F)cc2)nc(=O)c2[nH]ccc21 [Example 211, ({4-oxo-1-[2-(propan-2-yloxy)ethyl]-1H,4H,5H-pyrrolo[3,2-d]pyrimidin-2-yl}sulfanyl)methyl N-(4-fluorophenyl)-N-methylcarbamate]	–	–	–	–	human Plasma stability (Plasma Stability; [8]): 99% remaining; SIF [1, 9]: 96% remaining; Papp at 90 min, 10 µM [2, 10]: 20 ×10⁻⁶ cm/s; SGF [3, 11]: 100% remaining

Further lines, with some results ahead:

human Plasma stability (Plasma Stability; [12])	SIF [1, 13]	Papp at 90 min, 10 µM [2, 14]	SGF [3, 15]	SMILES	further results
98% @ 1 h	100% @ 1 h	7.23 ×10⁻⁶ cm/s	86% @ 1 h	CC(C)CNC(=O)OCSc1nc(=O)c2[nH]ccc2n1CCOC(C)C [Example 186]	–
99% @ 1 h	98% @ 1 h	13.8 ×10⁻⁶ cm/s	99% @ 1 h	CCN(C(=O)OCSc1nc(=O)c2[nH]ccc2n1CCOC(C)C)C(C)C [Example 190]	–
97% remaining	50% remaining	3.84 ×10⁻⁶ cm/s	100% remaining	CC(C)OCCn1c(SCOC(=O)NCc2ccccc2)nc(=O)c2[nH]ccc21 [Example 192]	–
95% remaining	57% remaining	31.6 ×10⁻⁶ cm/s	98% remaining	CC(C)OCCn1c(SCOC(=O)NCc2ccccc2)nc(=O)c2c1ccn2C(=O)NCc1ccccc1 [Example 193]	–
99% remaining	98% remaining	19.5 ×10⁻⁶ cm/s	99% remaining	CC(C)NC(=O)OCSc1nc(=O)c2[nH]ccc2n1CCOC(C)C [Example 196]	–
2% remaining	75% remaining	9.76 ×10⁻⁶ cm/s	100% remaining	COC(=O)OCSc1nc(=O)c2[nH]ccc2n1CCOC(C)C [Example 200]	–
1% remaining	63% remaining	13.4 ×10⁻⁶ cm/s	99% remaining	CC(C)OCCn1c(SCOC(=O)OC(C)C)nc(=O)c2[nH]ccc21 [Example 203]	–
1% remaining	–	6.35 ×10⁻⁶ cm/s	–	CCCCOC(=O)OCSc1nc(=O)c2[nH]ccc2n1CCOC(C)C [Example 204]	SIF [1, 16]: 2; SGF [3, 16]: 85
99% remaining	–	0.138 ×10⁻⁶ cm/s	–	CCCCCCCCOC(=O)OCSc1nc(=O)c2[nH]ccc2n1CCOC(C)C [Example 206]	SIF [1, 16]: 1; SGF [3, 16]: 91
